{"source": "ChEMBL document CHEMBL3885881", "about": "“DrugMatrix”", "organism": "Rattus norvegicus", "experiment": "DrugMatrix - Regimen: Daily Repeat", "type": "toxicity, organism-based, Sprague-Dawley", "set-up": "regimen Daily Repeat, gender Male, age 6-8 weeks", "conditions": "in vivo, po, route oral GAVAGE, vehicle 100 % SALINE; for GLUCOSE / LACTATE DEHYDROGENASE / LIPASE / PHOSPHORUS / SODIUM / TOTAL BILIRUBIN / TOTAL PROTEIN / ALANINE AMINOTRANSFERASE / ALBUMIN / ALKALINE PHOSPHATASE / ASPARTATE AMINOTRANSFERASE / BLOOD UREA NITROGEN / CARBON DIOXIDE / CHLORIDE / CHOLESTEROL / CREATINE PHOSPHOKINASE / CREATININE: tissue Plasma; for ABSOLUTE BASOPHIL / ABSOLUTE EOSINOPHIL / ABSOLUTE LYMPHOCYTE / ABSOLUTE MONOCYTE / ABSOLUTE SEGMENTED NEUTROPHIL / BASOPHIL / EOSINOPHIL / ERYTHROCYTE COUNT / HEMATOCRIT / HEMOGLOBIN / LEUKOCYTE COUNT / LYMPHOCYTE / MEAN CORPUSCULAR HEMOGLOBIN / MEAN CORPUSCULAR HEMOGLOBIN CONCENTRATION / MONOCYTE / NEUTROPHIL / NUCLEATED RED BLOOD CELLS / PLATELET COUNT: tissue Blood", "key": {"[1]": {"conditions": "0 mg/kg, […], dose level Control, time 7 day"}, "[2]": {"conditions": "140 mg/kg, 72 h, dose level Low, time 3 day"}, "[3]": {"conditions": "140 mg/kg, 120 h, dose level Low, time 5 day"}, "[4]": {"conditions": "700 mg/kg, 72 h, dose level Low, time 3 day"}}, "data": [{"smiles": "CN(C)C=O", "note": "[DIMETHYLFORMAMIDE]", "values": [{"measurement": "GLUCOSE", "setting": "[1]", "result": 132.67, "unit": "mg/dL"}, {"measurement": "LACTATE DEHYDROGENASE", "setting": "[1]", "result": 107.17, "unit": "u/L"}, {"measurement": "LIPASE", "setting": "[1]", "result": 10.5, "unit": "u/L"}, {"measurement": "PHOSPHORUS", "setting": "[1]", "result": 10.47, "unit": "mg/dL"}, {"measurement": "SODIUM", "setting": "[1]", "result": 140.73, "unit": "MEQ/L"}, {"measurement": "TOTAL BILIRUBIN", "setting": "[1]", "result": 0.12, "unit": "mg/dL"}, {"measurement": "TOTAL PROTEIN", "setting": "[1]", "result": 6.18, "unit": "G/DL"}, {"measurement": "ABSOLUTE BASOPHIL", "setting": "[2]", "result": 0, "unit": "CELLS/uL"}, {"measurement": "ABSOLUTE EOSINOPHIL", "setting": "[2]", "result": 31.33, "unit": "CELLS/uL"}, {"measurement": "ABSOLUTE LYMPHOCYTE", "setting": "[2]", "result": 5899.33, "unit": "CELLS/uL"}, {"measurement": "ABSOLUTE MONOCYTE", "setting": "[2]", "result": 62.67, "unit": "CELLS/uL"}, {"measurement": "ABSOLUTE SEGMENTED NEUTROPHIL", "setting": "[2]", "result": 306.67, "unit": "CELLS/uL"}, {"measurement": "BASOPHIL", "setting": "[2]", "result": 0, "unit": "%"}, {"measurement": "EOSINOPHIL", "setting": "[2]", "result": 0.33, "unit": "%"}, {"measurement": "ERYTHROCYTE COUNT", "setting": "[2]", "result": 4.99, "unit": "x10E6/uL"}, {"measurement": "HEMATOCRIT", "setting": "[2]", "result": 31.43, "unit": "%"}, {"measurement": "HEMOGLOBIN", "setting": "[2]", "result": 12.53, "unit": "G/DL"}, {"measurement": "LEUKOCYTE COUNT", "setting": "[2]", "result": 6.3, "unit": "x10E3/uL"}, {"measurement": "LYMPHOCYTE", "setting": "[2]", "result": 94.67, "unit": "%"}, {"measurement": "MEAN CORPUSCULAR HEMOGLOBIN", "setting": "[2]", "result": 25.27, "unit": "pg"}, {"measurement": "MEAN CORPUSCULAR HEMOGLOBIN CONCENTRATION", "setting": "[2]", "result": 40.07, "unit": "G/DL"}, {"measurement": "MONOCYTE", "setting": "[2]", "result": 0.67, "unit": "%"}, {"measurement": "NEUTROPHIL", "setting": "[2]", "result": 4.33, "unit": "%"}, {"measurement": "NUCLEATED RED BLOOD CELLS", "setting": "[2]", "result": "0 /100WBC"}, {"measurement": "PLATELET COUNT", "setting": "[2]", "result": 734, "unit": "x10E3/uL"}, {"measurement": "ALANINE AMINOTRANSFERASE", "setting": "[2]", "result": 52.67, "unit": "u/L"}, {"measurement": "ALBUMIN", "setting": "[2]", "result": 4.17, "unit": "G/DL"}, {"measurement": "ALKALINE PHOSPHATASE", "setting": "[2]", "result": 264.67, "unit": "u/L"}, {"measurement": "ASPARTATE AMINOTRANSFERASE", "setting": "[2]", "result": 88.67, "unit": "u/L"}, {"measurement": "BLOOD UREA NITROGEN", "setting": "[2]", "result": 12.33, "unit": "mg/dL"}, {"measurement": "CARBON DIOXIDE", "setting": "[2]", "result": 36.67, "unit": "mmol/L"}, {"measurement": "CHLORIDE", "setting": "[2]", "result": 97.33, "unit": "MEQ/L"}, {"measurement": "CHOLESTEROL", "setting": "[2]", "result": 97.67, "unit": "mg/dL"}, {"measurement": "CREATINE PHOSPHOKINASE", "setting": "[2]", "result": 161.33, "unit": "u/L"}, {"measurement": "CREATININE", "setting": "[2]", "result": 0.33, "unit": "mg/dL"}, {"measurement": "GLUCOSE", "setting": "[2]", "result": 208, "unit": "mg/dL"}, {"measurement": "LACTATE DEHYDROGENASE", "setting": "[2]", "result": 181.33, "unit": "u/L"}, {"measurement": "LIPASE", "setting": "[2]", "result": 10.67, "unit": "u/L"}, {"measurement": "PHOSPHORUS", "setting": "[2]", "result": 11.23, "unit": "mg/dL"}, {"measurement": "SODIUM", "setting": "[2]", "result": 148.43, "unit": "MEQ/L"}, {"measurement": "TOTAL BILIRUBIN", "setting": "[2]", "result": 0.2, "unit": "mg/dL"}, {"measurement": "TOTAL PROTEIN", "setting": "[2]", "result": 6.1, "unit": "G/DL"}, {"measurement": "ABSOLUTE BASOPHIL", "setting": "[3]", "result": 0, "unit": "CELLS/uL"}, {"measurement": "ABSOLUTE EOSINOPHIL", "setting": "[3]", "result": 0, "unit": "CELLS/uL"}, {"measurement": "ABSOLUTE LYMPHOCYTE", "setting": "[3]", "result": 9653, "unit": "CELLS/uL"}, {"measurement": "ABSOLUTE MONOCYTE", "setting": "[3]", "result": 169, "unit": "CELLS/uL"}, {"measurement": "ABSOLUTE SEGMENTED NEUTROPHIL", "setting": "[3]", "result": 644.67, "unit": "CELLS/uL"}, {"measurement": "BASOPHIL", "setting": "[3]", "result": 0, "unit": "%"}, {"measurement": "EOSINOPHIL", "setting": "[3]", "result": 0, "unit": "%"}, {"measurement": "ERYTHROCYTE COUNT", "setting": "[3]", "result": 6.77, "unit": "x10E6/uL"}, {"measurement": "HEMATOCRIT", "setting": "[3]", "result": 41.07, "unit": "%"}, {"measurement": "HEMOGLOBIN", "setting": "[3]", "result": 15.33, "unit": "G/DL"}, {"measurement": "LEUKOCYTE COUNT", "setting": "[3]", "result": 10.47, "unit": "x10E3/uL"}, {"measurement": "LYMPHOCYTE", "setting": "[3]", "result": 93.33, "unit": "%"}, {"measurement": "MEAN CORPUSCULAR HEMOGLOBIN", "setting": "[3]", "result": 22.63, "unit": "pg"}, {"measurement": "MEAN CORPUSCULAR HEMOGLOBIN CONCENTRATION", "setting": "[3]", "result": 37.33, "unit": "G/DL"}, {"measurement": "MONOCYTE", "setting": "[3]", "result": 1.67, "unit": "%"}, {"measurement": "NEUTROPHIL", "setting": "[3]", "result": 5, "unit": "%"}, {"measurement": "NUCLEATED RED BLOOD CELLS", "setting": "[3]", "result": "0 /100WBC"}, {"measurement": "PLATELET COUNT", "setting": "[3]", "result": 1170.67, "unit": "x10E3/uL"}, {"measurement": "ALANINE AMINOTRANSFERASE", "setting": "[3]", "result": 57.33, "unit": "u/L"}, {"measurement": "ALBUMIN", "setting": "[3]", "result": 4.4, "unit": "G/DL"}, {"measurement": "ALKALINE PHOSPHATASE", "setting": "[3]", "result": 234.67, "unit": "u/L"}, {"measurement": "ASPARTATE AMINOTRANSFERASE", "setting": "[3]", "result": 93.67, "unit": "u/L"}, {"measurement": "BLOOD UREA NITROGEN", "setting": "[3]", "result": 17.67, "unit": "mg/dL"}, {"measurement": "CARBON DIOXIDE", "setting": "[3]", "result": 34.33, "unit": "mmol/L"}, {"measurement": "CHLORIDE", "setting": "[3]", "result": 96.33, "unit": "MEQ/L"}, {"measurement": "CHOLESTEROL", "setting": "[3]", "result": 111.33, "unit": "mg/dL"}, {"measurement": "CREATINE PHOSPHOKINASE", "setting": "[3]", "result": 195.67, "unit": "u/L"}, {"measurement": "CREATININE", "setting": "[3]", "result": 0.19, "unit": "mg/dL"}, {"measurement": "GLUCOSE", "setting": "[3]", "result": 171.33, "unit": "mg/dL"}, {"measurement": "LACTATE DEHYDROGENASE", "setting": "[3]", "result": 243, "unit": "u/L"}, {"measurement": "LIPASE", "setting": "[3]", "result": 11.33, "unit": "u/L"}, {"measurement": "PHOSPHORUS", "setting": "[3]", "result": 10.83, "unit": "mg/dL"}, {"measurement": "SODIUM", "setting": "[3]", "result": 145.97, "unit": "MEQ/L"}, {"measurement": "TOTAL BILIRUBIN", "setting": "[3]", "result": 0.13, "unit": "mg/dL"}, {"measurement": "TOTAL PROTEIN", "setting": "[3]", "result": 6.67, "unit": "G/DL"}, {"measurement": "ABSOLUTE BASOPHIL", "setting": "[4]", "result": 0, "unit": "CELLS/uL"}, {"measurement": "ABSOLUTE EOSINOPHIL", "setting": "[4]", "result": 0, "unit": "CELLS/uL"}, {"measurement": "ABSOLUTE LYMPHOCYTE", "setting": "[4]", "result": 7783.67, "unit": "CELLS/uL"}, {"measurement": "ABSOLUTE MONOCYTE", "setting": "[4]", "result": 176.17, "unit": "CELLS/uL"}, {"measurement": "ABSOLUTE SEGMENTED NEUTROPHIL", "setting": "[4]", "result": 1123.5, "unit": "CELLS/uL"}, {"measurement": "BASOPHIL", "setting": "[4]", "result": 0, "unit": "%"}, {"measurement": "EOSINOPHIL", "setting": "[4]", "result": 0, "unit": "%"}, {"measurement": "ERYTHROCYTE COUNT", "setting": "[4]", "result": 5.7, "unit": "x10E6/uL"}, {"measurement": "HEMATOCRIT", "setting": "[4]", "result": 37.75, "unit": "%"}, {"measurement": "HEMOGLOBIN", "setting": "[4]", "result": 13.52, "unit": "G/DL"}, {"measurement": "LEUKOCYTE COUNT", "setting": "[4]", "result": 9.08, "unit": "x10E3/uL"}, {"measurement": "LYMPHOCYTE", "setting": "[4]", "result": 86.17, "unit": "%"}, {"measurement": "MEAN CORPUSCULAR HEMOGLOBIN", "setting": "[4]", "result": 23.73, "unit": "pg"}, {"measurement": "MEAN CORPUSCULAR HEMOGLOBIN CONCENTRATION", "setting": "[4]", "result": 35.83, "unit": "G/DL"}, {"measurement": "MONOCYTE", "setting": "[4]", "result": 1.83, "unit": "%"}, {"measurement": "NEUTROPHIL", "setting": "[4]", "result": 12, "unit": "%"}, {"measurement": "NUCLEATED RED BLOOD CELLS", "setting": "[4]", "result": "0 /100WBC"}, {"measurement": "PLATELET COUNT", "setting": "[4]", "result": 951.67, "unit": "x10E3/uL"}, {"measurement": "ALANINE AMINOTRANSFERASE", "setting": "[4]", "result": 77.33, "unit": "u/L"}]}]}
